Results taken from patent publication US20210284647A1, “N-(3-(IMIDAZO[1,2-B]PYRIDAZIN-3-YLETHYNYL)-4-METHYLPHENYL)-5-PHENYL-4,5-DIHYDRO-1H-PYRAZOLE-1-CARBOXAMIDE DERIVATIVE, AND PHARMACEUTICAL COMPOSITION CONTAINING SAME AS ACTIVE INGREDIENT FOR TREATING KINASE-RELATED DISEASES” (VORONOIBIO INC., priority 2018, published 2021).

Tests used:
[1] = system: human Jurkat T cells deficient in FADD; assay: Cell protection effect under apoptosis-inducing condition (TNF-α); format: cell-based; details: 40 ng of TNF-α, 50 hours, CellTiter-Glo, read-out: I2.I Cell EC50
Description: The cell protection effect of the compounds according to the present invention under the condition of inducing apoptosis by TNF-α was confirmed by […]. An apoptosis inducing factor such as TNF-α was treated to induce apoptosis of human Jurkat T cells deficient in FADD, to which the example compound was treated, and the cell protection effect was confirmed through the following analysis. Jurkat T cells deficient in FADD were cultured using RPMI medium (Hyclone) containing 10% FBS. When performing the test, the cells were seeded in a 96-well plate containing a medium suitable for the cell line at the density of 10,000 cells/well, and cultured in a 37° C. 5% CO2 incubator for 24 hours. Then, each well was treated with 40 ng of TNF-α, and the compounds prepared in the above examples were each treated with a 3-fold concentration gradient with 1 μM as the highest concentration. As the solvent control, dimethyl sulfoxide (DMSO) was treated at the concentration of 0.05% (v/v), which was the same concentration as that used for the compound treatment. Then, the cells were cultured for 50 hours. To confirm the degree of viability of the cells, a mixture provided in CellTiter-Gloe Luminescent Cell Viability Assay Kit (Promega) was added to the culture medium of the cells, followed by further culture at 37° C. for 30 minutes. Then, luminescence fluorescence was measured. The degree of inhibition of apoptosis induction according to the treatment concentration of each compound was calculated based on the fluorescence of the solvent control cells not treated with the compound. At this time, the concentration of each compound inhibiting 50% was determined as EC50 (μM). EC50 of each compound was calculated using Prism (version 7.01, GraphPad) software.

human GST-RIPK1 = biological target: T1, human GST-RIPK1 (Homo sapiens, UniProt Q13546); assay: RIPK1 inhibitory activity (ADP-Glo kinase assay); format: biochemical; details: human GST-RIPK1 10 ng, ATP 50 uM, 25° C. for 4 hours, read-out: Enzyme IC50
T1 construct: GST; purchased signalchem
T1 sequence (Q13546 1-375 limits assumed): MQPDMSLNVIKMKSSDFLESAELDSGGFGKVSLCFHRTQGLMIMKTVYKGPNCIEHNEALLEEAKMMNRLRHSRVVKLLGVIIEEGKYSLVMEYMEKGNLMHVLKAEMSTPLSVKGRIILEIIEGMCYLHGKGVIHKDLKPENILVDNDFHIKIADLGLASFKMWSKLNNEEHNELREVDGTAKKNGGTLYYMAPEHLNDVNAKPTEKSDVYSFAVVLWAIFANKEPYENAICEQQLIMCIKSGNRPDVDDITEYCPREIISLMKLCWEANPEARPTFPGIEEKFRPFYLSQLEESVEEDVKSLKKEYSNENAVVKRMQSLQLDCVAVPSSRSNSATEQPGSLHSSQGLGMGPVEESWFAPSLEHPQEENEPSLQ
Description: The following experiment was performed to evaluate the inhibitory activity of the example compounds according to the present invention against RIPK1 (receptor-interacting serine/threonine protein kinase 1).
The example compound was reacted with the purified human GST-RIPK1 (1375, signalchem) enzyme to evaluate the enzyme inhibitory activity in the following manner. The composition of the reaction buffer used herein was as follows: 40 mM Tris-Hcl pH 7.4, 20 mM MgCl2, 0.5 mg/ml, BSA and 0.5 uM DTT. All the test materials were reacted in the reaction buffer. After reacting human GST-RIPK1 (1375, 10 ng), purified ATP (50 uM) and a specific substrate solution at 25° C. for 4 hours, the enzyme activity was confirmed using an in vitro ADP-Glo™ kinase assay (promega). Luminoscence was measured by reacting the enzyme activity reaction solution, ADP-Glo reaction solution, and enzyme activity detection solution at the ratio of 2:2:1. The degree of enzyme activity inhibition according to the treatment concentration of each compound was calculated based on the fluorescence of the enzyme activity of the solvent control not treated with the compound. At this time, the concentration of each compound inhibiting 50% of the enzyme activity was determined as IC50 (nM). IC50 of each compound was determined with three data sets and calculated using Prism (version 7.01, GraphPad) software.

Row | Compound | EC50 [1] [nM] | IC50 (human GST-RIPK1) [nM]
1 | O=C(Nc1cccc(C#Cc2cnc3cccnn23)c1)N1N=CCC1c1ccc(Cl)cc1 (centres unmarked) [Example 35, 5-(4-chlorophenyl)-N-(3-(imidazo[1,2-b]pyridazin-3-ylethynyl)phenyl)-4,5-dihydro-1H-pyrazole-1-carboxamide 2,2,2-trifluoroacetate] | 3.87 | 61.6
2 | O=C(Nc1cccc(C#Cc2cnc3cccnn23)c1)N1N=CCC1c1ccc(C(F)(F)F)cc1 (centres unmarked) [Example 26, N-(3-(imidazo[1,2-b]pyridazin-3-ylethynyl)phenyl)-5-(4-(trifluoromethyl)phenyl)-4,5-dihydro-1H-pyrazole-1-carboxamide 2,2,2-trifluoroacetate] | 201 | 6.9
3 | O=C(Nc1ccc(F)c(C#Cc2cnc3cccnn23)c1)N1N=CCC1c1ccccc1 (centres unmarked) [Example 44, N-(4-fluoro-3-(imidazo[1,2-b]pyridazin-3-ylethynyl)phenyl)-5-phenyl-4,5-dihydro-1H-pyrazole-1-carboxamide 2,2,2-trifluoroacetate] | 0.37 | 18.1
4 | Cc1ccc(NC(=O)N2N=CC[C@@H]2c2ccccc2)cc1C#Cc1cnc2cccnn12 [Example 3, (R)—N-(3-(imidazo[1,2-b]pyridazin-3-ylethynyl)-4-methylphenyl)-5-phenyl-4,5-dihydro-1H-pyrazole-1-carboxamide 2,2,2-trifluoroacetate] | 314 | 221
5 | O=C(Nc1cccc(C#Cc2cnc3cccnn23)c1)N1N=CCC1c1cccnc1 (centres unmarked) [Example 36, N-(3-(imidazo[1,2-b]pyridazin-3-ylethynyl)phenyl)-5-(pyridin-3-yl)-4,5-dihydro-1H-pyrazole-1-carboxamide 2,2,2-trifluoroacetate] | 12 | 2.98
6 | S=C(Nc1cccc(C#Cc2cnc3cccnn23)c1)N1N=CCC1c1ccccc1 (centres unmarked) [Example 43, N-(3-(imidazo[1,2-b]pyridazin-3-ylethynyl)phenyl)-5-phenyl-4,5-dihydro-1H-pyrazole-1-carbothioamide] | 6.7 | 277
7 | O=C(Nc1cccc(C#Cc2cnc3cccnn23)c1)N1N=CCC1c1ccc2c(c1)OCO2 (centres unmarked) [Example 39, 5-(benzo[d][1,3]dioxol-5-yl)-N-(3-(imidazo[1,2-b]pyridazin-3-ylethynyl)phenyl)-4,5-dihydro-1H-pyrazole-1-carboxamide 2,2,2-trifluoroacetate] | 2.8 | 4.9
8 | COc1ccc(C2CC=NN2C(=O)Nc2cccc(C#Cc3cnc4cccnn34)c2)cc1 (centres unmarked) [Example 27, N-(3-(imidazo[1,2-b]pyridazin-3-ylethynyl)phenyl)-5-(4-methoxyphenyl)-4,5-dihydro-1H-pyrazole-1-carboxamide 2,2,2-trifluoroacetate] | 55.4 | 2.35
9 | O=C(c1cccc(C#Cc2cnc3cccnn23)c1)N1N=CCC1c1ccccc1 (centres unmarked) [Example 53, (3-(imidazo[1,2-b]pyridazin-3-ylethynyl)phenyl)(5-phenyl-4,5-dihydro-1H-pyrazol-1-yl)methanone 2,2,2-trifluoroacetate] | 975 | 731

Other lines, results leading:

Row | EC50 [1] [nM] | IC50 (human GST-RIPK1) [nM] | Compound
10 | 1.1 | 119 | COC(=O)Nc1cccn2c(C#Cc3cccc(NC(=O)N4N=CCC4c4ccccc4)c3)cnc12 (centres unmarked) [Example 64, methyl (3-((3-(5-phenyl-4,5-dihydro-1H-pyrazole-1-carboxamido)phenyl)ethynyl)imidazo[1,2-a]pyridin-8-yl)carbamate]
11 | 0.35 | 47.4 | Cc1ccc(NC(=O)N2N=CCC2c2ccc(F)cc2)cc1C#Cc1cnc2cccnn12 (centres unmarked) [Example 11, 5-(4-fluorophenyl)-N-(3-(imidazo[1,2-b]pyridazin-3-ylethynyl)-4-methylphenyl)-4,5-dihydro-1H-pyrazole-1-carboxamide 2,2,2-trifluoroacetate]
12 | 0.3 | 30.5 | O=C(Nc1cccc(C#Cc2cnn3cccnc23)c1)N1N=CCC1c1ccccc1 (centres unmarked) [Example 56, 5-phenyl-N-(3-(pyrazolo[1,5-a]pyrimidin-3-ylethynyl)phenyl)-4,5-dihydro-1H--pyrazole-1-carboxamide]
13 | 1.4 | 3.4 | O=C(Nc1ccnc(C#Cc2cnc3cccnn23)c1)N1N=CCC1c1ccccc1 (centres unmarked) [Example 48, N-(2-(imidazo[1,2-b]pyridazin-3-ylethynyl)pyridin-4-yl)-5-phenyl-4,5-dihydro-1H-pyrazole-1-carboxamide 2,2,2-trifluoroacetate]
14 | 0.44 | 2.76 | O=C(Nc1cccc(C#Cc2cnc3cccnn23)c1)N1N=CC[C@H]1c1cc(F)cc(F)c1 [Example 24, (S)-5-(3,5-difluorophenyl)-N-(3-(imidazo[1,2-b]pyridazin-3-ylethynyl)phenyl)-4,5-dihydro-1H-pyrazole-1-carboxamide 2,2,2-trifluoroacetate]
15 | 0.2 | 19.1 | Cc1ccc(NC(=O)N2N=CC[C@H]2c2ccc(F)cc2)cc1C#Cc1cnc2cccnn12 [Example 12, (S)-5-(4-fluorophenyl)-N-(3-(imidazo[1,2-b]pyridazin-3-ylethynyl)-4-methylphenyl)-4,5-dihydro-1H-pyrazole-1-carboxamide 2,2,2-trifluoroacetate]
16 | 1.84 | 1.22 | O=C(Nc1cccc(C#Cc2cnc3cccnn23)c1)N1N=CCC1c1ccccn1 (centres unmarked) [Example 37, N-(3-(imidazo[1,2-b]pyridazin-3-ylethynyl)phenyl)-5-(pyridin-2-yl)-4,5-dihydro-1H-pyrazole-1-carboxamide 2,2,2-trifluoroacetate]
17 | 0.3 | 23.8 | O=C(Nc1cccc(C#Cc2cnc3cnccn23)c1)N1N=CCC1c1ccccc1 (centres unmarked) [Example 57, N-(3-(imidazo[1,2-a]pyrazin-3-ylethynyl)phenyl)-5-phenyl-4,5-dihydro-1H-pyrazole-1-carboxamide]
18 | 1.7 | 179 | O=C(Nc1cccn2c(C#Cc3cccc(NC(=O)N4N=CCC4c4ccccc4)c3)cnc12)C1CC1 (centres unmarked) [Example 62, N-(3-((8-(cyclopropanecarboxamido)imidazo[1,2-a]pyridin-3-yl)ethynyl)phenyl)-5-phenyl-4,5-dihydro-1H-pyrazole-1-carboxamide 2,2,2-trifluoroacetate]
19 | 1.43 | 10.2 | O=C(Nc1cccc(C#Cc2cnc3cccnn23)c1)N1N=CCC1c1ccc(F)cc1 (centres unmarked) [Example 31, 5-(4-fluorophenyl)-N-(3-(imidazo[1,2-b]pyridazin-3-ylethynyl)phenyl)-4,5-dihydro-1H-pyrazole-1-carboxamide 2,2,2-trifluoroacetate]
20 | 0.4 | 96.7 | CNC(=O)Nc1cccn2c(C#Cc3cccc(NC(=O)N4N=CCC4c4ccccc4)c3)cnc12 (centres unmarked) [Example 61, N-(3-((8-(3-methylureido)imidazo[1,2-a]pyridin-3-yl)ethynyl)phenyl)-5-phenyl-4,5-dihydro-1H-pyrazole-1-carboxamide 2,2,2-trifluoroacetate]
21 | 0.2 | 51.4 | CS(=O)(=O)c1ccc(Nc2cccn3c(C#Cc4cccc(NC(=O)N5N=CCC5c5ccccc5)c4)cnc23)cc1 (centres unmarked) [Example 65, N-(3-((8-((4-(methylsulfonyl)phenyl)amino)imidazo[1,2-a]pyridin-3-yl)ethynyl)phenyl)-5-phenyl-4,5-dihydro-1H-pyrazole-1-carboxamide 2,2,2-trifluoroacetate]
22 | 0.1 | 4.3 | Cc1ccc(NC(=O)N2N=CCC2c2ccc(Cl)cc2)cc1C#Cc1cnc2cccnn12 (centres unmarked) [Example 15, 5-(4-chlorophenyl)-N-(3-(imidazo[1,2-b]pyridazin-3-ylethynyl)-4-methylphenyl)-4,5-dihydro-1H-pyrazole-1-carboxamide 2,2,2-trifluoroacetate]
